Experimental data: US8835632B2, “Methods to increase the photostability of dyes” (The University of North Carolina at Chapel Hill, priority 2007, dated 2014)

Experiments:
[1] = Methylene Blue-sensitized photobleaching (reactivity of the dyes with singlet oxygen); type: physicochemical; conditions: methanol, [dye]=[Methylene Blue]=3.33 μM, filtered light λ>630 nm, 40 min
Experimental: The reactivity of the dyes with singlet oxygen also was examined to confirm that the cyano substituent group affected photobleaching mediated by singlet oxygen. Singlet oxygen was generated using the photosensitizer Methylene Blue (MB), which has a high quantum yield for singlet oxygen production and allows singlet oxygen to be introduced into the system without excitation of the merocyanine dye. See Murov and Carmichael, Handbook of Photochemistry, 2nd ed.; Dekker: New York (1993).
15 mL of a methanol solution containing dye (3.33 μM) and Methylene Blue (3.33 μM) were placed in a 20-mL Borosilicate Glass Scintillation Vial (Fisher Scientific). The vial was illuminated with the light of a 90 W halogen reflector lamp (120 V, 1280 Lumens, 12 Degree Beam Spread). […] The length of the filtering solution was 1.0 cm. The distance between the vial and the lamp was 11.0 cm. A fan (120 V, 150 mm)) was used to cool the vial. At selected time intervals a sample was removed and the sample absorbance spectrum was obtained on a Hewlett-Packard 8453 diode array spectrophotometer (Agilent, Technologies, Inc.). Rate constants of dye photobleaching were obtained from a plot of ln(A) vs. time (see Table 5).
Again, without wishing to be bound to any one particular theory, the greater reactivity of S-SO vs. I-SO toward singlet oxygen can be attributed to the greater electron donating capacity of the benzothiazole moiety relative to the indolenine ring system.

[2] = Absorption and fluorescence spectra, extinction coefficient, fluorescence quantum yield; type: physicochemical
[3] = from C6H6 to MeOH; cited from earlier work

Structure (SMILES)	Bleaching on irradiation of Methylene Blue [1]	Absorbance λmax ([2]; Butanol (BuOH)) [nm]	Emission λmax ([2]; Butanol (BuOH)) [nm]	Extinction coefficient ε ([2]; Butanol (BuOH))	Fluorescence quantum yield Φ ([2]; Butanol (BuOH))	Absorbance λmax ([2]; Methanol (MeOH)) [nm]	Emission λmax ([2]; Methanol (MeOH)) [nm]	Extinction coefficient ε ([2]; Methanol (MeOH))	Fluorescence quantum yield Φ ([2]; Methanol (MeOH))	Suppression of extinction coefficient by introduction of the cyano-group ([2]; in methanol) [%]	Absorption wavelength shift [3] [nm]	Emission wavelength shift [3] [nm]
CN1/C(=C(C#N)/C=C/C=C2/C(=O)c3ccccc3S2(=O)=O)C(C)(C)c2ccccc21 [I-SO-CN, (2Z,3E,5Z)-5-(1,1-dioxido-3-oxo-1-benzothiophen-2(3H)-ylidene)-2-(1,3,3-trimethyl-1,3-dihydro-2H-indol-2-ylidene)pent-3-enenitrile]	0%	527	594	56000	0.04	528	595	55000	0.03	–	–	–
CCN1/C(=C(C#N)/C=C/C=C2/C(=O)c3ccccc3S2(=O)=O)Sc2ccccc21 [S-SO-CN, (2E,3E,5Z)-5-(1,1-dioxido-3-oxo-1-benzothien-2(3H)-ylidene)-2-(3-ethyl-1,3-benzothiazol-2(3H)-ylidene)pent-3-enenitrile]	no bleaching	550	599	91000	0.16	547	597	95000	0.05	–	–	–
CCN1/C(=C/C=C/C=C2/C(=O)c3ccccc3S2(=O)=O)Sc2ccccc21 [S-SO, (2Z)-2-[(2E,4Z)-4-(3-ethyl-1,3-benzothiazol-2(3H)-ylidene)but-2-en-1-ylidene]-1-benzothiophen-3(2H)-one 1,1-dioxide, reference compound]	43%	604	622	163000	0.12	598	617	143000	0.05	34	–	–
CCN1C(=O)\C(=C/C=C/C=C2\Sc3ccccc3N2CC)C(O)N(CC)C1=S (stereo not drawn) [S-TBA]	–	–	–	–	–	–	–	–	–	–	17	11
